What was measured:
SW-620 = assay: Growth inhibition of human SW620 cells after 48 hrs by sulforhodamine B assay; format: functional; conditions: SW-620, 48 h
HCT-15 = assay: Growth inhibition of human HCT15 cells after 48 hrs by sulforhodamine B assay; format: functional; conditions: HCT-15, 48 h
SK-MEL-5 = assay: Growth inhibition of human SK-MEL-5 cells after 48 hrs by sulforhodamine B assay; format: functional; conditions: SK-MEL-5, 48 h
OVCAR-4 = assay: Growth inhibition of human OVCAR4 cells after 48 hrs by sulforhodamine B assay; format: functional; conditions: OVCAR-4, 48 h
SK-OV-3 = assay: Growth inhibition of human SKOV3 cells after 48 hrs by sulforhodamine B assay; format: functional; conditions: SK-OV-3, 48 h
MDA-MB-231 = assay: Growth inhibition of human MDA-MB-231 cells after 48 hrs by sulforhodamine B assay; format: functional; conditions: MDA-MB-231, 48 h
MOLT-4 = assay: Growth inhibition of human MOLT4 cells after 48 hrs by sulforhodamine B assay; format: functional; conditions: MOLT-4, 48 h
HOP-62 = assay: Growth inhibition of human HOP62 cells after 48 hrs by sulforhodamine B assay; format: functional; conditions: HOP-62, 48 h
786-0 = assay: Growth inhibition of human 786-0 cells after 48 hrs by sulforhodamine B assay; format: functional; conditions: 786-0, 48 h
UACC-257 = assay: Growth inhibition of human UACC257 cells after 48 hrs by sulforhodamine B assay; format: functional; conditions: UACC-257, 48 h
KM12 = assay: Growth inhibition of human KM12 cells after 48 hrs by sulforhodamine B assay; format: functional; conditions: KM12, 48 h
NCI-H23 = assay: Growth inhibition of human NCI-H23 cells after 48 hrs by sulforhodamine B assay; format: functional; conditions: NCI-H23, 48 h
SN12C = assay: Growth inhibition of human SN12C cells after 48 hrs by sulforhodamine B assay; format: functional
IGROV-1 = assay: Growth inhibition of human IGROV1 cells after 48 hrs by sulforhodamine B assay; format: functional; conditions: IGROV-1, 48 h
OVCAR-8 = assay: Growth inhibition of human OVCAR8 cells after 48 hrs by sulforhodamine B assay; format: functional; conditions: OVCAR-8, 48 h
Malme-3M = assay: Growth inhibition of human MALME-3M cells after 48 hrs by sulforhodamine B assay; format: functional
DU-145 = assay: Growth inhibition of human DU145 cells after 48 hrs by sulforhodamine B assay; format: functional; conditions: DU-145, 48 h
K562 = assay: Growth inhibition of human K562 cells after 48 hrs by sulforhodamine B assay; format: functional; conditions: K562, 48 h
CCRF-CEM = assay: Growth inhibition of human CCRF-CEM cells after 48 hrs by sulforhodamine B assay; format: functional
RPMI-8226 = assay: Growth inhibition of human RPMI8226 cells after 48 hrs by sulforhodamine B assay; format: functional; conditions: RPMI-8226, 48 h
A498 = assay: Growth inhibition of human A498 cells after 48 hrs by sulforhodamine B assay; format: functional; conditions: A498, 48 h
NCI-H460 = assay: Growth inhibition of human NCI-H460 cells after 48 hrs by sulforhodamine B assay; format: functional; conditions: NCI-H460, 48 h
M14 = assay: Growth inhibition of human M14 cells after 48 hrs by sulforhodamine B assay; format: functional; conditions: M14, 48 h
SK-MEL-28 = assay: Growth inhibition of human SK-MEL-28 cells after 48 hrs by sulforhodamine B assay; format: functional; conditions: SK-MEL-28, 48 h
HT-29 = assay: Growth inhibition of human HT-29 cells after 48 hrs by sulforhodamine B assay; format: functional; conditions: HT-29, 48 h
COLO 205 = assay: Growth inhibition of human COLO205 cells after 48 hrs by sulforhodamine B assay; format: functional; conditions: COLO 205, 48 h
ACHN = assay: Growth inhibition of human ACHN cells after 48 hrs by sulforhodamine B assay; format: functional
CAKI-1 = assay: Growth inhibition of human CAKI-1 cells after 48 hrs by sulforhodamine B assay; format: functional; conditions: CAKI-1, 48 h
SR = assay: Growth inhibition of human SR cells after 48 hrs by sulforhodamine B assay; format: functional
OVCAR-5 = assay: Growth inhibition of human OVCAR5 cells after 48 hrs by sulforhodamine B assay; format: functional; conditions: OVCAR-5, 48 h
[1] = Growth inhibition of human EKVX cells after 48 hrs by sulforhodamine B assay; format: functional
T47D = assay: Growth inhibition of human T47D cells after 48 hrs by sulforhodamine B assay; format: functional
MCF7 = assay: Growth inhibition of human MCF7 cells after 48 hrs by sulforhodamine B assay; format: functional; conditions: MCF7, 48 h
UO-31 = assay: Growth inhibition of human UO31 cells after 48 hrs by sulforhodamine B assay; format: functional; conditions: UO-31, 48 h
TK-10 = assay: Growth inhibition of human TK10 cells after 48 hrs by sulforhodamine B assay; format: functional; conditions: TK-10, 48 h
SF-268 = assay: Growth inhibition of human SF268 cells after 48 hrs by sulforhodamine B assay; format: functional; conditions: SF-268, 48 h
RXF 393 = assay: Growth inhibition of human RXF393 cells after 48 hrs by sulforhodamine B assay; format: functional; conditions: RXF 393, 48 h
UACC-62 = assay: Growth inhibition of human UACC62 cells after 48 hrs by sulforhodamine B assay; format: functional; conditions: UACC-62, 48 h
NCI-H522 = assay: Growth inhibition of human NCI-H522 cells after 48 hrs by sulforhodamine B assay; format: functional; conditions: NCI-H522, 48 h
MDA-MB-435 = assay: Growth inhibition of human MDA-MB-435 cells after 48 hrs by sulforhodamine B assay; format: functional; conditions: MDA-MB-435, 48 h
[2] = Growth inhibition of human HCC2998 cells after 48 hrs by sulforhodamine B assay; format: functional; conditions: HCC 2998, 48 h
HOP-92 = assay: Growth inhibition of human HOP92 cells after 48 hrs by sulforhodamine B assay; format: functional; conditions: HOP-92, 48 h
[3] = Growth inhibition of human NCI-ADR-RES cells after 48 hrs by sulforhodamine B assay; format: functional
BT-549 = assay: Growth inhibition of human BT549 cells after 48 hrs by sulforhodamine B assay; format: functional; conditions: BT-549, 48 h
OVCAR-3 = assay: Growth inhibition of human OVCAR3 cells after 48 hrs by sulforhodamine B assay; format: functional; conditions: OVCAR-3, 48 h
Ovis aries = organism: Ovis aries; assay: Inhibition of sheep brain tubulin polymerization at 100 uM using DAPI by fluorimetry
SNB-75 = assay: Growth inhibition of human SNB75 cells after 48 hrs by sulforhodamine B assay; format: functional; conditions: SNB-75, 48 h
SF-539 = assay: Growth inhibition of human SF539 cells after 48 hrs by sulforhodamine B assay; format: functional; conditions: SF-539, 48 h
SF-295 = assay: Growth inhibition of human SF295 cells after 48 hrs by sulforhodamine B assay; format: functional; conditions: SF-295, 48 h
PC-3 = assay: Growth inhibition of human PC3 cells after 48 hrs by sulforhodamine B assay; format: functional; conditions: PC-3, 48 h
LOX IMVI = assay: Growth inhibition of human LOXIMVI cells after 48 hrs by sulforhodamine B assay; format: functional
HL-60(TB) = assay: Growth inhibition of human HL-60(TB) cells after 48 hrs by sulforhodamine B assay; format: functional; conditions: HL-60, 48 h
A549 = assay: Growth inhibition of human A549/ATCC cells after 48 hrs by sulforhodamine B assay; format: functional; conditions: A549, 48 h
HCT-116 = assay: Growth inhibition of human HCT116 cells after 48 hrs by sulforhodamine B assay; format: functional; conditions: HCT-116, 48 h
[4] = Growth inhibition of human Hs 578T cells after 48 hrs by sulforhodamine B assay; format: functional
[5] = Inhibition of sheep brain tubulin polymerization using DAPI by fluorimetry; parameters: species or system Ovis aries
MDA-MB-468 = assay: Growth inhibition of human MDA-MB-468 cells after 48 hrs by sulforhodamine B assay; format: functional; conditions: MDA-MB-468, 48 h
SK-MEL-2 = assay: Growth inhibition of human SK-MEL-2 cells after 48 hrs by sulforhodamine B assay; format: functional; conditions: SK-MEL-2, 48 h

## CCOC(=O)c1cc(C(=O)N2c3ccccc3Sc3ccccc32)n2c(C)cccc12
SW-620
  GI50: 3140 nM
HCT-15
  GI50: 4520 nM
SK-MEL-5
  GI50: 2550 nM
OVCAR-4
  GI50: 7930 nM
SK-OV-3
  GI50: 4040 nM
MDA-MB-231
  GI50: 6040 nM
MOLT-4
  GI50: 3720 nM
HOP-62
  GI50: 6140 nM
786-0
  GI50: 4170 nM
UACC-257
  GI50: 3240 nM
KM12
  GI50: 2940 nM
NCI-H23
  GI50: 3550 nM
SN12C
  GI50: 5530 nM
IGROV-1
  GI50: 5780 nM
OVCAR-8
  GI50: 3760 nM
Malme-3M
  GI50: 6130 nM
DU-145
  GI50: 8220 nM
K562
  GI50: 3780 nM
CCRF-CEM
  GI50: 2390 nM
RPMI-8226
  GI50: 2160 nM
A498
  GI50: 1910 nM
NCI-H460
  GI50: 3750 nM
M14
  GI50: 2600 nM
SK-MEL-28
  GI50: 3500 nM
HT-29
  GI50: 2950 nM
COLO 205
  GI50: 3130 nM
ACHN
  GI50: 4850 nM
CAKI-1
  GI50: 6230 nM
SR
  GI50: 2420 nM
OVCAR-5
  GI50: 65800 nM
[1]
  GI50: 5840 nM
T47D
  GI50: 4160 nM
MCF7
  GI50: 3030 nM
UO-31
  GI50: 3850 nM
TK-10
  GI50: 6730 nM
SF-268
  GI50: 7110 nM
RXF 393
  GI50: 2770 nM
UACC-62
  GI50: 2550 nM
NCI-H522
  GI50: 1820 nM
MDA-MB-435
  GI50: 672 nM
[2]
  GI50: 6710 nM
HOP-92
  GI50: 2690 nM
[3]
  GI50: 2170 nM
BT-549
  GI50: 2930 nM
OVCAR-3
  GI50: 4240 nM
Ovis aries
  inhibition: 31%
SNB-75
  GI50: 1880 nM
SF-539
  GI50: 4130 nM
SF-295
  GI50: 4890 nM
PC-3
  GI50: 2200 nM
LOX IMVI
  GI50: 4570 nM
HL-60(TB)
  GI50: 3080 nM
A549
  GI50: 3810 nM
HCT-116
  GI50: 2890 nM
[4]
  GI50: 1500 nM

## COc1ccc(C(=O)N2c3ccccc3Sc3ccccc32)cc1F
SW-620
  GI50: 358 nM
HCT-15
  GI50: 405 nM
SK-MEL-5
  GI50: 335 nM
OVCAR-4
  GI50: 6560 nM
SK-OV-3
  GI50: 322 nM
MDA-MB-231
  GI50: 570 nM
MOLT-4
  GI50: 442 nM
HOP-62
  GI50: 539 nM
786-0
  GI50: 590 nM
UACC-257
  GI50: 671 nM
KM12
  GI50: 239 nM
NCI-H23
  GI50: 393 nM
SN12C
  GI50: 760 nM
IGROV-1
  GI50: 572 nM
OVCAR-8
  GI50: 384 nM
Malme-3M
  GI50: 991 nM
DU-145
  GI50: 303 nM
K562
  GI50: 143 nM
CCRF-CEM
  GI50: 300 nM
RPMI-8226
  GI50: 259 nM
A498
  GI50: 211 nM
NCI-H460
  GI50: 372 nM
M14
  GI50: 216 nM
SK-MEL-28
  GI50: 543 nM
HT-29
  GI50: 251 nM
COLO 205
  GI50: 244 nM
[5]
  IC50: 9480 nM
ACHN
  GI50: 1890 nM
CAKI-1
  GI50: 561 nM
MDA-MB-468
  GI50: 249 nM
SR
  GI50: 271 nM
OVCAR-5
  GI50: 522 nM
[1]
  GI50: 964 nM
T47D
  GI50: 468 nM
MCF7
  GI50: 316 nM
UO-31
  GI50: 2220 nM
TK-10
  GI50: 586 nM
SF-268
  GI50: 819 nM
RXF 393
  GI50: 272 nM
UACC-62
  GI50: 518 nM
SK-MEL-2
  GI50: 355 nM
NCI-H522
  GI50: 102 nM
MDA-MB-435
  GI50: 35 nM
[2]
  GI50: 314 nM
HOP-92
  GI50: 209 nM
[3]
  GI50: 112 nM
BT-549
  GI50: 604 nM
OVCAR-3
  GI50: 312 nM
Ovis aries
  inhibition: 95%
SNB-75
  GI50: 222 nM
SF-539
  GI50: 290 nM
SF-295
  GI50: 229 nM
PC-3
  GI50: 419 nM
LOX IMVI
  GI50: 590 nM
HL-60(TB)
  GI50: 267 nM
A549
  GI50: 382 nM
HCT-116
  GI50: 375 nM
[4]
  GI50: 285 nM

Source: ChEMBL document CHEMBL2331144, “Synthesis and anticancer activity of analogues of phenstatin, with a phenothiazine A-ring, as a new class of microtubule-targeting agents” (Bioorg Med Chem Lett, 2013)
